Assay results taken from patent publication US4008219A, “4-Benzazonine derivatives and process for preparation thereof” (Nihon Iyakuhin Kogyo Co., Ltd., priority 1973, dated 1977).

Assays:
[1] = Acute Toxicity; settings: in vivo; mouse, intravenous injection
Protocol: (§1) Tested Animal: mice of the ddN-series, .male., 20 ± 1 experimental
(§2) Conditions: temperature of 24 ± 1° C., relative humidity of 65

[2] = tested on: mice of the ddN-series; assay: Analgesic test, Chemical Stimulus Method (Writhing Method); assay type: in vivo, mouse; design: scale not given here; settings: interabdominal injection, comparative value, scale not given
Protocol: (§3) Results of comparative tests where the medicinal effects of compounds of this invention were compared with those of known compounds such as pentazocine and codeine phosphate by employing mice and guinea pigs as the test animals are shown in the following Tables I and II.
Chemical Stimulus Method^1)
(interabdominal injection)
as §1, §2
^1) R. Koster, M. Anderson and E. J. De Beer, Federation Proceedings, […]

[3] = Solubility in water
[4] = tested on: guinea pigs; assay: Antitussive effect, Mechanical Stimulus Method; assay type: in vivo, guinea pig
Excerpt: as §3
(§4) Comparison of Antitusive Effects
Mechanical Stimulus Method^1)
1) Takagi et al modification [Journal of the Pharmaceutical Society of
Japan, 80, 1497 (1960)] of the test method of H. Konzett and E. Rothlin
[Experientia, 10, 472 (1954)], in which urethane was hypodermically
injected (15 mg/Kg) into guinea pigs and swine hairs were inserted into
the trachea to impart stimulus.

[5] = tested on: mice of the ddN-series; assay: Analgesic test, Heat Stimulus Method (Hot Plate Method); assay type: in vivo, mouse; design: reference not given here; settings: hypodermic injection, comparative value, scale not given
Protocol: as §3
Heat Stimulus Method^2)
as §1, §2
^2) G. Woolfe and A. D. Mac Donald; Journal of Pharmacology and […]

[6] = tested on: guinea pigs; assay: Antitussive effect, Chemical Stimulus Method (SO2 gas); assay type: in vivo, guinea pig; settings: guinea pigs, SO2 gas
Excerpt: as §3, §4
2) Takagi et al modification [Journal of Pharmaceutical Society of Japan,
80, 1497 (1960)] of the test method of H. Friebel, C. Reichle and A. V.
Gravenitz [Archiv Fur experimentalle Phathologie und Pharmakologie,
Naunyn-Schmiede-berg's, 224,384 (1955)], in which the test compound was
hypodermically injected into guinea pigs, 30 minutes after the injection
the quinea pigs were put into a desiccator filled with SO2 gas and
kept in the desiccator for 1 minute, then the guinea pigs were put into
another vessel and the degree of coughing was examined.

[7] = tested on: mice of the ddN-series; assay: Analgesic test, Pressure Stimulus Method; assay type: in vivo, mouse; settings: hypodermic injection, comparative value, pentazocine 1.0
Protocol: as §3
Pressure Stimulus Method^3)
R (hypodermic injection)
as §1, §2
^3) A. F. Green, P. A. Yound and E. I. Godfrey; British Journal of
Pharmacology and Chemotherapy, 6, 572 (1951)

C=CCN1CCC2CC(C1)C(O)c1ccccc12 (stereo not drawn) [R=H, R1=H, R2=H, CH2R3=CH2CHCH2, R4=OH, 4-allyl-2,3,4,5,6,7-hexahydro-1,6-methano-1H-4-benzazonin-7-ol]
LD50 [1]: 58 mg/kg | Chemical Stimulus Method (Writhing Method) [2]: 1.2 | solubility in water [3]: water soluble | ED50 ([4]; Cavia porcellus, swine hairs inserted into the trachea): 18.9 mg/kg | Effect Ratio to Codeine Phosphate, Mechanical Stimulus Method ([4]; codeine phosphate = 100): 76.6 | Heat Stimulus Method (Hot Plate Method) [5]: 1.4 | ED50 ([6]; Cavia porcellus, sc, 0.5 h, hypodermic injection, 1 minute, 30 minutes after injection, read-out: ED50, Chemical Stimulus Method (antitussive)): 15.3 mg/kg | Effect Ratio to Codeine Phosphate, Chemical Stimulus Method ([6]; codeine phosphate = 100): 86.7 | Pressure Stimulus Method [7]: 1.4
